According to publication PMC7156458, “Synthetic biology based construction of biological activity-related library of fungal decalin-containing diterpenoid pyrones” (Nature Communications, 2020):

Target: Aβ42 (Homo sapiens, UniProt P05067)
Experiment: Th-T (thioflavin-T) assay of Aβ42 aggregation
Assay type: biochemical
Details: for Th-T assay plate reading, mean of three wells (Supplementary Fig. 47): source data, Ab alone and No Ab as controls

Chain of Aβ42 (P05067 672-713): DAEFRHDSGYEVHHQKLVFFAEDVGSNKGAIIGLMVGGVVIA

Th-T fluorescence, mean of three wells (Aβ42 aggregation time course, reading M117): 3.027
Th-T fluorescence, mean of three wells (Aβ42 aggregation time course, reading M118): 3.005
Th-T fluorescence, mean of three wells (Aβ42 aggregation time course, reading M119): 3.036
Th-T fluorescence, mean of three wells (Aβ42 aggregation time course, reading M120): 3.024
Th-T fluorescence, mean of three wells (Aβ42 aggregation time course, reading M121): 3.009
Th-T fluorescence, mean of three wells (Aβ42 aggregation time course, reading M122): 2.9814
Th-T fluorescence, mean of three wells (Aβ42 aggregation time course, reading M123): 3.007
Th-T fluorescence, mean of three wells (Aβ42 aggregation time course, reading M124): 3.01
Th-T fluorescence, mean of three wells (Aβ42 aggregation time course, reading M125): 2.994
Th-T fluorescence, mean of three wells (Aβ42 aggregation time course, reading M126): 2.985
Th-T fluorescence, mean of three wells (Aβ42 aggregation time course, reading M127): 3.018
Th-T fluorescence, mean of three wells (Aβ42 aggregation time course, reading M128): 2.986
Th-T fluorescence, mean of three wells (Aβ42 aggregation time course, reading M129): 2.997
Th-T fluorescence, mean of three wells (Aβ42 aggregation time course, reading M130): 3.004
Th-T fluorescence, mean of three wells (Aβ42 aggregation time course, reading M131): 2.988
Th-T fluorescence, mean of three wells (Aβ42 aggregation time course, reading M132): 2.974
Th-T fluorescence, mean of three wells (Aβ42 aggregation time course, reading M133): 2.995
Th-T fluorescence, mean of three wells (Aβ42 aggregation time course, reading M134): 2.998
Th-T fluorescence, mean of three wells (Aβ42 aggregation time course, reading M135): 3.001
Th-T fluorescence, mean of three wells (Aβ42 aggregation time course, reading M136): 2.985
Th-T fluorescence, mean of three wells (Supplementary Fig. 47, reading M137): 2.995
Th-T fluorescence, mean of three wells (Supplementary Fig. 47, reading M138): 2.975
Th-T fluorescence, mean of three wells (Supplementary Fig. 47, reading M139): 2.9735
Th-T fluorescence, mean of three wells (Supplementary Fig. 47, reading M140): 2.981
Th-T fluorescence, mean of three wells (Supplementary Fig. 47, reading M141): 2.969
Th-T fluorescence, mean of three wells (Supplementary Fig. 47, reading M142): 2.937
Th-T fluorescence, mean of three wells (Supplementary Fig. 47, reading M143): 3.01
Th-T fluorescence, mean of three wells (Supplementary Fig. 47, reading M144): 2.949
Th-T fluorescence, mean of three wells (Supplementary Fig. 47, reading M145): 2.953
Th-T fluorescence, mean of three wells (Supplementary Fig. 47 source data, measurement M37 of time course): 3.026
Th-T fluorescence, mean of three wells (Supplementary Fig. 47 source data, measurement M38 of time course): 3.058
Th-T fluorescence, mean of three wells (Supplementary Fig. 47 source data, measurement M39 of time course): 3.066
Th-T fluorescence, mean of three wells (Supplementary Fig. 47 source data, measurement M40 of time course): 3.0688
Th-T fluorescence, mean of three wells (Supplementary Fig. 47 source data, measurement M41 of time course): 3.079
Th-T fluorescence, mean of three wells (Supplementary Fig. 47 source data, measurement M42 of time course): 3.094
Th-T fluorescence, mean of three wells (Supplementary Fig. 47 source data, measurement M43 of time course): 3.089
Th-T fluorescence, mean of three wells (Supplementary Fig. 47 source data, measurement M44 of time course): 3.087
Th-T fluorescence, mean of three wells (Supplementary Fig. 47 source data, measurement M45 of time course): 3.107
Th-T fluorescence, mean of three wells (Supplementary Fig. 47 source data, measurement M46 of time course): 3.104
Th-T fluorescence, mean of three wells (Supplementary Fig. 47 source data, measurement M47 of time course): 3.097
Th-T fluorescence, mean of three wells (Supplementary Fig. 47 source data, measurement M48 of time course): 3.099
Th-T fluorescence, mean of three wells (Supplementary Fig. 47 source data, measurement M49 of time course): 3.124
Th-T fluorescence, mean of three wells (Supplementary Fig. 47 source data, measurement M50 of time course): 3.143
Th-T fluorescence, mean of three wells (Supplementary Fig. 47 source data, measurement M51 of time course): 3.109
Th-T fluorescence, mean of three wells (Supplementary Fig. 47 source data, measurement M52 of time course): 3.12
Th-T fluorescence, mean of three wells (Supplementary Fig. 47 source data, measurement M53 of time course): 3.131
Th-T fluorescence, mean of three wells (Supplementary Fig. 47 source data, measurement M54 of time course): 3.122
Th-T fluorescence, mean of three wells (Supplementary Fig. 47 source data, measurement M55 of time course): 3.1161
Th-T fluorescence, mean of three wells (Supplementary Fig. 47 source data, measurement M56 of time course): 3.112
Th-T assay plate reading, mean of three wells (Supplementary Fig. 47) (measurement M1): 0.2982
Th-T assay plate reading, mean of three wells (Supplementary Fig. 47) (measurement M2): 0.2966
Th-T assay plate reading, mean of three wells (Supplementary Fig. 47) (measurement M3): 0.3112
Th-T assay plate reading, mean of three wells (Supplementary Fig. 47) (measurement M4): 0.3288
Th-T assay plate reading, mean of three wells (Supplementary Fig. 47) (measurement M5): 0.3791
Th-T assay plate reading, mean of three wells (Supplementary Fig. 47) (measurement M6): 0.4184
Th-T assay plate reading, mean of three wells (Supplementary Fig. 47) (measurement M7): 0.4946
Th-T assay plate reading, mean of three wells (Supplementary Fig. 47) (measurement M8): 0.5732
Th-T assay plate reading, mean of three wells (Supplementary Fig. 47) (measurement M9): 0.6554
Th-T assay plate reading, mean of three wells (Supplementary Fig. 47) (measurement M10): 0.6998
Th-T assay plate reading, mean of three wells (Supplementary Fig. 47) (measurement M11): 0.7388
Th-T assay plate reading, mean of three wells (Supplementary Fig. 47) (measurement M12): 0.7839
Th-T assay plate reading, mean of three wells (Supplementary Fig. 47) (measurement M13): 0.8524
Th-T assay plate reading, mean of three wells (Supplementary Fig. 47) (measurement M14): 1.025
Th-T assay plate reading, mean of three wells (Supplementary Fig. 47) (measurement M15): 1.367
Th-T assay plate reading, mean of three wells (Supplementary Fig. 47) (measurement M16): 1.777
Th-T fluorescence, mean of three wells (reading M17, Supplementary Fig. 47 source data): 2.114
Th-T fluorescence, mean of three wells (reading M18, Supplementary Fig. 47 source data): 2.387
Th-T fluorescence, mean of three wells (reading M19, Supplementary Fig. 47 source data): 2.598
Th-T fluorescence, mean of three wells (reading M20, Supplementary Fig. 47 source data): 2.677
Th-T fluorescence, mean of three wells (reading M21, Supplementary Fig. 47 source data): 2.685
Th-T fluorescence, mean of three wells (reading M22, Supplementary Fig. 47 source data): 2.669
Th-T fluorescence, mean of three wells (reading M23, Supplementary Fig. 47 source data): 2.723
Th-T fluorescence, mean of three wells (reading M24, Supplementary Fig. 47 source data): 2.7479
Th-T fluorescence, mean of three wells (reading M25, Supplementary Fig. 47 source data): 2.777
Th-T fluorescence, mean of three wells (reading M26, Supplementary Fig. 47 source data): 2.823
Th-T fluorescence, mean of three wells (reading M27, Supplementary Fig. 47 source data): 2.858
Th-T fluorescence, mean of three wells (reading M28, Supplementary Fig. 47 source data): 2.868
Th-T fluorescence, mean of three wells (reading M29, Supplementary Fig. 47 source data): 2.914
Th-T fluorescence, mean of three wells (reading M30, Supplementary Fig. 47 source data): 2.924
Th-T fluorescence, mean of three wells (reading M31, Supplementary Fig. 47 source data): 2.961
Th-T fluorescence, mean of three wells (reading M32, Supplementary Fig. 47 source data): 2.958
Th-T fluorescence, mean of three wells (reading M33, Supplementary Fig. 47 source data): 2.966
Th-T fluorescence, mean of three wells (reading M34, Supplementary Fig. 47 source data): 3.0036
Th-T fluorescence, mean of three wells (reading M35, Supplementary Fig. 47 source data): 3.001
Th-T fluorescence, mean of three wells (reading M36, Supplementary Fig. 47 source data): 3.031
Th-T fluorescence, mean of three wells (time course, reading M57): 3.145
Th-T fluorescence, mean of three wells (time course, reading M58): 3.098
Th-T fluorescence, mean of three wells (time course, reading M59): 3.0965
Th-T fluorescence, mean of three wells (time course, reading M60): 3.12
Th-T fluorescence, mean of three wells (time course, reading M61): 3.114
Th-T fluorescence, mean of three wells (time course, reading M62): 3.124
Th-T fluorescence, mean of three wells (time course, reading M63): 3.121
Th-T fluorescence, mean of three wells (time course, reading M64): 3.089
Th-T fluorescence, mean of three wells (time course, reading M65): 3.1417
Th-T fluorescence, mean of three wells (time course, reading M66): 3.124
Th-T fluorescence, mean of three wells (time course, reading M67): 3.125
Th-T fluorescence, mean of three wells (time-course reading M97, Supplementary Fig. 47 source data): 3.037
Th-T fluorescence, mean of three wells (time-course reading M98, Supplementary Fig. 47 source data): 3.037
Th-T fluorescence, mean of three wells (time-course reading M99, Supplementary Fig. 47 source data): 3.05
Th-T fluorescence, mean of three wells (time-course reading M100, Supplementary Fig. 47 source data): 3.074
Th-T fluorescence, mean of three wells (time-course reading M101, Supplementary Fig. 47 source data): 3.025
Th-T fluorescence, mean of three wells (time-course reading M102, Supplementary Fig. 47 source data): 3.036
Th-T fluorescence, mean of three wells (time-course reading M103, Supplementary Fig. 47 source data): 3.034
Th-T fluorescence, mean of three wells (time-course reading M104, Supplementary Fig. 47 source data): 3.0181
Th-T fluorescence, mean of three wells (time-course reading M105, Supplementary Fig. 47 source data): 3.041
Th-T fluorescence, mean of three wells (time-course reading M106, Supplementary Fig. 47 source data): 3.028
Th-T fluorescence, mean of three wells (time-course reading M107, Supplementary Fig. 47 source data): 3.025
Th-T fluorescence, mean of three wells (time-course reading M108, Supplementary Fig. 47 source data): 3.028
Th-T fluorescence, mean of three wells (time-course reading M109, Supplementary Fig. 47 source data): 3.032
Th-T fluorescence, mean of three wells (time-course reading M110, Supplementary Fig. 47 source data): 3.022
Th-T fluorescence, mean of three wells (time-course reading M111, Supplementary Fig. 47 source data): 3.062
Th-T fluorescence, mean of three wells (time-course reading M112, Supplementary Fig. 47 source data): 3.021
Th-T fluorescence, mean of three wells (time-course reading M113, Supplementary Fig. 47 source data): 3.021
Th-T fluorescence, mean of three wells (time-course reading M114, Supplementary Fig. 47 source data): 3.0544
Th-T fluorescence, mean of three wells (time-course reading M115, Supplementary Fig. 47 source data): 3.028
Th-T fluorescence, mean of three wells (time-course reading M116, Supplementary Fig. 47 source data): 3.017
SMILES: C=C1CC[C@@H]2[C@](C)(CC[C@H]3O[C@H](C=C(C)C)C[C@@]23C)[C@@H]1Cc1c(O)c(C)c(C)oc1=O [Compound 10, higginsianin A]
